Patent US11325982B2, “Biparatopic and multiparatopic antibodies with common light chain and method of use” (XUANZHU BIOPHARMACEUTICAL CO., LTD., priority 2017, dated 2022)

Test system: NCI-N87 cells
Assay: Inhibition of proliferation of NCI-N87 cells (CCK-8)
Type: cell-based
Conditions: 72 hours, FIG. 14
Description: The growth curve of NCI-N87 was initially determined by plating cells at various densities in 96-well tissue culture plates. Cells were gown in RPMI-1640 medium supplemented with 10% fetal bovine serum (FBS).
24 hours later, 10 μl of antibody construct diluted to various concentrations with the medium were added to the cell culture. After the cells were cultured for additional 72 hours, the cell proliferation rates were determined by adding 10 μl of CCK-8 reagent (Sigma). After 3 hour of incubation without light, the plates were read at OD450 nm. The wells without addition of antibody were set as 100% cell viability and Docetaxel was used as a positive control for cytotoxicity. The data were then fitted into 4-parameter sigmoidal curve to generate IC50. The samples were done in triplicate.

Substance | growth inhibition | growth inhibition effect compared with other antibodies
T54: Biparatopic knob/hole heterodimer: HC14 (pert T30A) and HC15 (Tra N54T/D98S) with Tra_LC_N30S_S56Y | inhibited growth | had greater effect than pertuzumab (mAb T1) or trastuzumab (mAb T22)
pertuzumab [T1, reference compound] | minimal effect | somewhat greater effect
T52: Biparatopic Fab-Ig: Bip_mAb_HC12 (VH_Pert_T30A/G56A; VH_Tra_N54T/D98S) with Tra_LC_N30S_S56Y | inhibited growth | had greater effect than pertuzumab (mAb T1) or trastuzumab (mAb T22)
T51: Biparatopic Fab-Ig: Bip_mAb_HC11 (VH_Pert_T30A; VH_Tra_N54T/D98S) with Tra_LC_N30S_S56Y; Fc M428L | inhibited growth | had greater effect than pertuzumab (mAb T1) or trastuzumab (mAb T22)
